Test results taken from patent publication US10519140B2, “Indolin-2-one derivatives” (Hoffmann-La Roche Inc., priority 2015, dated 2019).

How the values were obtained:
mice = test: SmartCube behavioral signature similarity analysis; type: in vivo; details: for discrimination rate vs Clozapine (1.0 mg/kg) / discrimination rate vs Olanzapine (0.25 mg/kg) / discrimination rate vs Risperidone (0.06 mg/kg): rate of 0.70 or lower = similar; for SmartCube behavioral signature class: i.p.
Text: In addition to the reversal of L-687,414 induced hyperlocomotion experiment as described above, some compounds of the present invention have been tested in SmartCube®, an automated system in which the behaviors of compound-treated mice in response to multiple challenges are captured by digital video and analyzed with computer algorithms (Roberds et al., Frontiers in Neuroscience, 2011, Vol. 5, Art. 103, 1-4; Vadim Alexandrov, Dani Brunner, Taleen Hanania, Emer Leahy Eur. J Pharmacol. 2015, 750, 82-99). In this way, the neuro-pharmacological effects of a test compound can be predicted by similarity to major classes of compounds, such as antipsychotics, anxiolytics and antidepressants. […] In addition to the above-mentioned experiments, it has been shown that some of the compounds of formula I are also ENT1 inhibitors (equilibrative nucleoside transporter 1 protein). Therapeutic potential of ENT1 inhibitors is directly or indirectly (via effects of adenosine and/or adenosine receptor modulation) described in the literature for the treatment of the following diseases: autoimmune disease (US 2006/253263), cancer (WO9857643), viral infections and fungal infections (WO2004060902), neurodegenerative disease, Parkinson's disease, Alzheimer's disease, Huntington's disease, amyotrophic lateral sclerosis, psychiatric diseases, substance abuse, ADHD, depression, epilepsy, anxiety, schizophrenia (WO0168105, EP 1252910, EP1612210, WO2009018275), autism spectrum disorders (Susan A. Masinoa, Masahito Kawamura Jr., Jessica L. Cotea, Rebecca B. Williams, David N. Ruskina, Neuropharmacology, 2013, 68, 116-121, pain (WO2009062990, WO2009064497), inflammation, asthma, (US 2007213296, Inflammation research, 2011, 60, 75-76), cardiovascular diseases (Trends in Pharmacological science, 2006, 27, 416-425), sleep disorders, (Psychopharmacology, 1987, 91, 434-439), and ophthalmology and inflammatory retinal diseases (World Journal of Diabetes, vol. 1, 12-18), epilepsy and neurodevelopmental disorders with co-morbid epilepsy (ENT1 Inhibition Attenuates Epileptic Seizure Severity Via Regulation of Glutamatergic Neurotransmission, Xu et al, Neuromol Med (2015) 17:1-11 and Epigenetic changes induced by adenosine augmentation therapy prevent epileptogenesis, Williams-Karneshy et al J Clin Invest. 2013 August; 123(8):3552-63.
As mentioned above, some compounds have been tested in SmartCube®, an analytical system developed by PsychoGenics Inc.
SmartCube® was used to compare the behavioral signature of a test compound to a database of behavioral signatures obtained from a large set of clinically approved reference drugs, grouped per indications. In this way, the neuro-pharmacological effects of a test compound can be predicted by similarity to major classes of compounds, such as antipsychotics, anxiolytics and antidepressants. This approach is ideally suited to screen collections of existing drugs or drug candidates with previously unknown neuropharmacology, which could expedite the development of new and unexpected treatments for psychiatric disorders.
Some compounds of the present invention were injected i.p. at different doses 15 minutes before the test. At least 8 mice were used in each treatment group. Digital videos of the subjects were processed with computer vision algorithms to extract over 2000 dependent measures including frequency and duration of many different behavioral states. The results of the classifications are presented as bar charts for each compound and dose (mg/kg), the Y-axis indicates the relative probability that the test compound will show efficacy in the specific CNS indication.
Compounds of the present invention show similar signatures to those of atypical antipsychotics. An independent analysis was performed on the unclassified data to determine the similarity of the example compounds to active doses of known atypical antipsychotics. […]

[1] = system: L-687,414-induced hyperlocomotion; test: L-687,414-induced hyperlocomotion; type: in vivo; details: Mus musculus; mice; dose 30 mg/kg ip, 15 min before 50 mg/kg s.c. L-687,414
Text: The authors described that hyperlocomotion induced by L-687,414 was inhibited by a series of known antipsychotic drugs. […] These findings predict antipsychotic activity for the present compounds, making them useful for the treatment of positive (psychosis) and negative symptoms of schizophrenia, substance abuse, alcohol and drug addiction, obsessive-compulsive disorders, cognitive impairment, bipolar disorders, mood disorders, major depression, resistant depression, anxiety disorders, Alzheimer's disease, autism, Parkinson's disease, chronic pain, borderline personality disorder, sleep disturbances, chronic fatigue syndrome, stiffness, antiinflammatory effects in arthritis and balance problems, and treatment of epilepsy and neurodevelopmental disorders with co-morbid epilepsy.
The described compounds of formula I reduce L-687,414-induced hyperlocomotion. This was assessed by using a computerized Digiscan 16 Animal Activity Monitoring System (Omnitech Electronics, Columbus, Ohio) to quantify locomotor activity. Animals were kept under a 12 h light/dark cycle and experiments were performed during the light period. Each activity monitoring chamber consisted of a Plexiglas box (41×41×28 cm; W×L×H) with sawdust bedding on the floor surrounded by invisible horizontal and vertical infrared sensor beams. The test boxes were divided by a Plexiglas cross providing each mouse with 20×20 cm of moving space. Cages were connected to a Digiscan Analyzer linked to a computer that constantly collected the beam status information. Records of photocell beam interruptions for individual animals were taken every 5 min over the duration of the experimental session and the sum of the first 6 periods was used as the final parameter. At least 8 mice were used in each treatment group. Compounds were administered i.p. 15 min before a s.c. injection of 50 mg/kg of L-687,414. Mice were then transferred from their home cage to the recording chambers for a 15-min habituation phase allowing free exploration of the new environment. Horizontal activity was then recorded for a 30-min time period. The % inhibition of L-687,414-induced hyperlocomotion was calculated according to the equation: ((Veh+L-687,414 horizontal activity−drug+L-687,414 horizontal activity)/Veh+L−687,414 horizontal activity)×100
ID50 values, defined as doses of each compound producing 50% inhibition of L-687,414-induced hyperlocomotion, were calculated by linear regression analysis of a dose-response data using an Excel-based computer-fitting program.
As data was not presupposed to be normally distributed, groups treated with test compounds were statistically compared with the control (vehicle-treated) group using one-tailed Mann Whitney U tests. In statistics, the Mann-Whitney Utest (also called the Mann-Whitney-Wilcoxon (MWW) or Wilcoxon rank-sum test) is a non-parametric statistical hypothesis test for assessing whether one of two samples of independent observations tends to have larger values than the other. It is one of the most well-known non-parametric significance tests. […] P values given in table 1 are one-tailed since only decreases in locomotion were expected and tested for (Mann, H. B., Whitney, D. R. (1947), “On a Test of Whether one of Two Random Variables is Stochastically Larger than the Other”, Annals of Mathematical Statistics, 18 (1), 50-60).

Compound: Cc1ncc(-c2ccc3c(c2)N(c2cncc(N4CCOCC4)n2)C(=O)C3(C)C)cn1 [Example 1, 3,3-Dimethyl-6-(2-methylpyrimidin-5-yl)-1-(6-morpholinopyrazin-2-yl)indolin-2-one]
- discrimination rate vs Clozapine (1.0 mg/kg) (mice; example at 3 mg/kg i.p.): 0.56
- discrimination rate vs Olanzapine (0.25 mg/kg) (mice; example at 3 mg/kg i.p.): 0.59
- discrimination rate vs Risperidone (0.06 mg/kg) (mice; example at 3 mg/kg i.p.): 0.83
- SmartCube behavioral signature class (mice): similarity to atypical antipsychotics
- inhibition in vivo at 30 mg/kg [1]: 90%

Compound: Cc1ncc(-c2ccc3c(c2)N(c2cncc(N4CCCC4=O)n2)C(=O)C3(C)C)cn1 [Example 3, 3,3-Dimethyl-6-(2-methylpyrimidin-5-yl)-1-(6-(2-oxopyrrolidin-1-yl)pyrazin-2-yl)indolin-2-one]
- discrimination rate vs Clozapine (1.0 mg/kg) (mice; example at 5 mg/kg i.p.): 0.62
- discrimination rate vs Olanzapine (0.25 mg/kg) (mice; example at 5 mg/kg i.p.): 0.66
- discrimination rate vs Risperidone (0.06 mg/kg) (mice; example at 5 mg/kg i.p.): 0.68
- SmartCube behavioral signature class (mice): similarity to atypical antipsychotics
- inhibition in vivo at 30 mg/kg [1]: 87.8%

Compound: Cc1ncc(-c2ccc3c(c2)N(c2cncc(N4CCOC4=O)n2)C(=O)C3(C)C)cn1 [Example 15, 3-(6-(3,3-Dimethyl-6-(2-methylpyrimidin-5-yl)-2-oxoindolin-1-yl)pyrazin-2-yl)oxazolidin-2-one]
- discrimination rate vs Clozapine (1.0 mg/kg) (mice; example at 3 mg/kg i.p.): 0.57
- discrimination rate vs Olanzapine (0.25 mg/kg) (mice; example at 3 mg/kg i.p.): 0.56
- discrimination rate vs Risperidone (0.06 mg/kg) (mice; example at 3 mg/kg i.p.): 0.59
- SmartCube behavioral signature class (mice): similarity to atypical antipsychotics
- inhibition in vivo at 30 mg/kg [1]: 87.1%

Compound: Cc1ncc(-c2ccc3c(c2)N(c2cnc(C)c(N4CCOCC4)n2)C(=O)C3(C)C)cn1 [Example 18, 3,3-Dimethyl-1-(5-methyl-6-morpholinopyrazin-2-yl)-6-(2-methylpyrimidin-5-yl)indolin-2-one]
- discrimination rate vs Clozapine (1.0 mg/kg) (mice; example at 3 mg/kg i.p.): 0.61
- discrimination rate vs Olanzapine (0.25 mg/kg) (mice; example at 3 mg/kg i.p.): 0.62
- discrimination rate vs Risperidone (0.06 mg/kg) (mice; example at 3 mg/kg i.p.): 0.73
- SmartCube behavioral signature class (mice): similarity to atypical antipsychotics
- inhibition in vivo at 30 mg/kg [1]: 88.8%

Compound: Cc1ncc(-c2ccc3c(c2)N(c2cnc(C)c(N4CCOC4=O)n2)C(=O)C3(C)C)cn1 [Example 20, 3-(6-(3,3-Dimethyl-6-(2-methylpyrimidin-5-yl)-2-oxoindolin-1-yl)-3-methylpyrazin-2-yl)oxazolidin-2-one]
- discrimination rate vs Clozapine (1.0 mg/kg) (mice; example at 3 mg/kg i.p.): 0.53
- discrimination rate vs Olanzapine (0.25 mg/kg) (mice; example at 3 mg/kg i.p.): 0.51
- discrimination rate vs Risperidone (0.06 mg/kg) (mice; example at 3 mg/kg i.p.): 0.57
- SmartCube behavioral signature class (mice): similarity to atypical antipsychotics
- inhibition in vivo at 30 mg/kg [1]: 89.7%

Compound: Cc1ncc(-c2ccc3c(c2)N(c2ccc4c(n2)N(C)C(=O)C4(C)C)C(=O)C3(C)C)cn1 [Example 39, 6-(3,3-Dimethyl-6-(2-methylpyrimidin-5-yl)-2-oxoindolin-1-yl)-1,3,3-trimethyl-1H-pyrrolo[2,3-b]pyridin-2(3H)-one]
- discrimination rate vs Clozapine (1.0 mg/kg) (mice; example at 3 mg/kg i.p.): 0.59
- discrimination rate vs Olanzapine (0.25 mg/kg) (mice; example at 3 mg/kg i.p.): 0.58
- discrimination rate vs Risperidone (0.06 mg/kg) (mice; example at 3 mg/kg i.p.): 0.62
- SmartCube behavioral signature class (mice): similarity to atypical antipsychotics
- inhibition in vivo at 30 mg/kg [1]: 99.5%

Compound: Cc1ncc(-c2ccc3c(c2)N(c2cnc(-n4ccnc4C)cn2)C(=O)C3(C)C)cn1 [Example 50, 3,3-Dimethyl-1-(5-(2-methyl-1H-imidazol-1-yl)pyrazin-2-yl)-6-(2-methylpyrimidin-5-yl)indolin-2-one]
- discrimination rate vs Clozapine (1.0 mg/kg) (mice; example at 3 mg/kg i.p.): 0.52
- discrimination rate vs Olanzapine (0.25 mg/kg) (mice; example at 3 mg/kg i.p.): 0.51
- discrimination rate vs Risperidone (0.06 mg/kg) (mice; example at 3 mg/kg i.p.): 0.63
- SmartCube behavioral signature class (mice): similarity to atypical antipsychotics
- inhibition in vivo at 30 mg/kg [1]: 96.3%

Compound: Cc1ncc(-c2ccc3c(c2)N(c2cnc4c(c2)C(C)(C)C(=O)N4C)C(=O)C3(C)C)cn1 [Example 54, 5-(3,3-Dimethyl-6-(2-methylpyrimidin-5-yl)-2-oxoindolin-1-yl)-1,3,3-trimethyl-1H-pyrrolo[2,3-b]pyridin-2(3H)-one]
- discrimination rate vs Clozapine (1.0 mg/kg) (mice; example at 3 mg/kg i.p.): 0.54
- discrimination rate vs Olanzapine (0.25 mg/kg) (mice; example at 3 mg/kg i.p.): 0.51
- discrimination rate vs Risperidone (0.06 mg/kg) (mice; example at 3 mg/kg i.p.): 0.57
- SmartCube behavioral signature class (mice): similarity to atypical antipsychotics
- inhibition in vivo at 30 mg/kg [1]: 93.5%
